Laboratory results taken from the NIST ThermoML archive (doi:10.1021/je300826t).
Numbers after ± are expanded uncertainties.

Columns and labels:
[1] = 298.15 K; 101.33 kPa; Liquid; Vibrating tube method
[2] = refractive index (Na D-line) (dimensionless); details: 298.15 K; 101.33 kPa; Liquid; Standard Abbe refractometry

A mass density [1] of 1212.59 ± 0.41 kg/m3 and a refractive index [2] of 1.47792 ± 0.0007 were found for CCCCn1cc[n+](C)c1.COS(=O)(=O)[O-] [1-butyl-3-methylimidazolium methyl sulfate] in this work.
A mass density [1] of 765.02 ± 0.24 kg/m3 and a refractive index [2] of 1.42062 ± 0.0007 were found for CC1CCCCC1 [methylcyclohexane] in this work.
A mass density [1] of 773.8 ± 0.13 kg/m3 and a refractive index [2] of 1.4236 ± 0.00068 were found for C1CCCCC1 [cyclohexane] in this work.
A mass density [1] of 873.57 ± 0.11 kg/m3 and a refractive index [2] of 1.49774 ± 0.00068 were found for c1ccccc1 [benzene] in this work.
A mass density [1] of 862.51 ± 0.11 kg/m3 and a refractive index [2] of 1.49304 ± 0.00068 were found for CCc1ccccc1 [ethylbenzene] in this work.
A mass density [1] of 831.47 ± 0.24 kg/m3 and a refractive index [2] of 1.45598 ± 0.0007 were found for C1CCCCCCC1 [cyclooctane] in this work.
